In patent publication US9498429B2, “Use of a vegetal extract for the prevention and treatment of hair loss” (GIULIANI S.P.A., priority 2013, dated 2016) one finds Scavenger activity data, which are given here for one compound.

For the test, the system named is murine fibroblasts BALB3T3. In words: MTT with induced oxidative stress-BALB3T3. It counts as cell-based. Particulars: 25 μM; oxidative stress induced with H2O2. On the procedure:
Non-treated cells in DMEM medium (Dulbecco's Modified Eagle's Medium, ATCC, Manassas, Va., USA) added to 2.5% fetal bovine serum (FCS), 1% non-essential amino acids (NEAA), a 1% penicillin and streptomycin mixture (Pen-Strep Mix), and maintained in 25 cm^2 (96 well) culture plates at 37° C. and under 5% CO2.
Cells treated for 2 hrs with 1 mM hydrogen peroxide in DMEM medium (Dulbecco's Modified Eagle's Medium, ATCC, Manassas, Va., USA) added to 2.5% fetal bovine serum (FCS), 1% non-essential amino acids (NEAA), a 1% penicillin and streptomycin mixture (Pen-Strep Mix), and maintained in 25 cm^2 (96 well) culture plates at 37° C. and under 5% CO2 (in the dark). […]
Studies conducted in 2005 by Rajapakse and colleagues (2005) have highlighted the possibility of employing a widely used and versatile method such that of the MTT essay for studying the in vitro anti-oxidant activity of active compounds. […] The possible protecting effects may be determined by the assessment of the post-oxidative stress cell viability of cells pre-treated/pre-exposed to the active compounds to be tested, in comparison to cells subjected to the same oxidative stress. […]
The data were expressed as the percentage of cell viability as compared to the non-stressed control cells (ctr), according to the following formula: cell viability/ctr=(Abs sample/Abs ctr)*100 […]

Turning to `Cc1c(C)c2c(c(C)c1O)CC[C@@](C)(CCC[C@H](C)CCC[C@H](C)CCCC(C)C)O2` [α-tocopherol], the Scavenger activity is reported as 43.10.
